These results are taken from patent US20240360089A1, “Metabolically Stable HDAC Inhibitors with Trifluoromethylpyruvamide as Metal-Binding Group” (The University of Toledo, priority 2023, published 2024).

One series concerns HCT116 cells. The series can be described thus: Growth inhibition / cell viability assay (methylene blue), HCT116. The format is cell-based, human. The procedure: Cell feasibility was examined using methylene blue staining. Cells were plated at a rate of 5000/well in 96 well plates (n=3) respectively and treated the next day. Three days after treatment, cells were fixed/stained in methylene blue saturated in 50% ethanol for 30 min at room temperature. Excessive water was used to wash off extra dye from the plates.

Series [1] in a line: S9 fraction metabolic stability assay (LC-ESI-MS). Type of series: in vitro ADME. The note with it: human liver S9 fraction. An excerpt:
Previous studies established that trifluoromethyl ketones are metabolically unstable and reduced in vivo to trifluoromethyl alcohols (TFMAs). This metabolic reduction caused a major loss in activity. […] It was believed that in TFPAs, the hydrate form of the ketone is stabilized compared to TFMKs, and is therefore less susceptible to reductive metabolism. […] Metabolic stability studies are primarily conducted using liver microsomal assays, as the predominant cytochrome P450 enzymes present in them are responsible for the metabolism of most xenobiotics in the human body. However, P450 transformations are mostly oxidative in nature, precluding their use to assess the stability of ketone drugs against reductive metabolism. […] Thus, using a liver extract containing both cytosol and microsomal enzymes would be more appropriate for this assay. This was accomplished by using the S9 fraction, which is basically the supernatant obtained from centrifugation of hepatocytes at 9000 g and contains both liver cytosol and microsomal enzymes. LC-ESI-MS was used to monitor the reduction of TFPA 60 over time and it was compared with TFMK 91.
A protocol similar to the one previously employed by others using Human Liver S9 fractions instead of liver microsomes was used for the metabolism studies. The assay was initiated by incubating a mixture of the substrate (0.02 mM), buffer (0.1M), and NADPH (1 mM) at 37° C. for ten minutes, followed by addition of the S9 fraction (0.5 mg) to the mixture and gentle mixing. The total volume of the reaction mixture was maintained at 1 mL. […] The reactions in the aliquots were terminated by adding an equal volume of ethyl acetate, mixing thoroughly, and transferring into micro centrifuge tubes. They were vortexed for 2 minutes and then subjected to centrifugation at 10,000×g for 15 minutes to remove the proteins. The top organic layers were extracted and evaporated under reduced pressure. The organic residues from the aliquots were dissolved in methanol first, then diluted 1:1 with water, and analyzed using LC-ESI-MS. A 450 μL aliquot of compound 60 with concentration of 0.02 mM contains 9 nanomoles, which after evaporation, was dissolved in 500 μL of methanol to give 18 μM in concentration of 60. This was diluted 1:1 with water to give a final concentration of 9 μM, which was used for LC-ESI-MS. Similarly, 200 μL of TFMK 91 at a concentration of 0.02 mM contains 4 nanomoles, which after removing ethyl acetate, and dissolving in 250 μL of methanol gives 16 μM concentration of 91. This was diluted 1:1 with water to give 8 μM final concentration for LC-ESI-MS.
The solvent flow rate was 0.2 mL/min, and the sample injection volume was 20 μL. […]

Series [2] concerns sixty cell lines. The series is described as follows: NCI 60 cell five-dose assay. The format is cell-based. As to conditions: Total Growth Inhibition.
A further series has as its system PARP1. The series is described as follows: Western blot analysis of PARP1 cleavage in HCT116 cells. Type of series: cell-based, human. The note with it: HCT116 cells treated for 24 h; measure of caspase dependent cell death. The protocol:
FIG. 13: Western blot analysis of PARP1 cleavage. HCT116 cells were treated with compounds 83, 84, and 85 at the indicated concentrations for 24 hr. Western blots were probed with an antibody that recognizes a cleaved form of PARP (Cell Signaling Technology 5626) as a measure of caspase dependent cell death.
To determine whether the compounds herein induced apoptosis, the enzyme Poly (ADP ribose) polymerase 1 (PARP1) was analyzed by western blotting. Caspase-dependent proteolytic cleavage of PARP1 is one of the hall marks of apoptosis and antibodies that specifically recognize the cleavage products are available. […] HCT116 cells were treated with compounds 83, 84, and 85 for 24 h.
NCI-H522 cell pellets obtained were lysed using lysis buffer containing 50 mM Tris (pH 7.4), 150 mM NaCl, 0.5% NP-40, (supplemented with 1 μg/ml aprotinin, 2 μg/ml leupeptin, 1 μg/ml pepstatin A, 1 mM DTT, and […]) for 30 minutes on ice and centrifuged at 13×10^3 g for 25 minutes at 4° C. The protein levels of the obtained lysates were normalized using BCA Protein Assay Kit (Pierce) and separated by SDS-polyacrylamide gel electrophoresis (12.5% acrylamide). Transfer to polyvinylidene difluoride membranes (Millipore) was followed by obstruction of membranes with blocking buffer containing 5% (w/v) non-fat dry milk dissolved in PBST [1×PBS containing 0.05% (v/v) Tween 20] for 1 hour at room temperature. Membranes were then incubated with corresponding primary antibodies overnight at 4° C. The membranes were then washed (3×15 min each) with PBST and incubated with secondary antibodies conjugated to horse-radish peroxidase, obtained from Biorad, and used at a dilution of 1:10,000. Bound antibodies were detected using enhanced chemiluminescence (Biorad).
(Immunoblotting shows a protein as a band on a membrane.)

The test system of series [3] is sixty cell lines. The series can be described thus: NCI 60 cell one-dose assay. Type of series: cell-based. The note with it: result in words.
[4] abbreviates: Homo sapiens, HCT-116, zinc-binding group screen, growth inhibition, HCT116 cells, maximum concentration of 100 μM, read-out: HCT116 IC50.
Where [5] appears, read: Homo sapiens, HCT-116, cap group SAR, HCT116 cell line, maximum concentration of 40 μM, read-out: IC50.
Setting [6] is: Homo sapiens, HCT-116, read-out: IC50 (μM) HCT116.
Setting [7] is: zinc-binding group screen, growth inhibition, HCT116 cells, maximum concentration of 100 μM.

Read-outs that look alike come from different tables or passages of the source.

The term IC50 denotes the concentration that gives 50% inhibition. `CC(=O)C(=O)NCCCCC(=O)Nc1ccccc1`: the IC50 in the series with HCT116 cells (setting [4]) is greater than 100 µM.
As for `CC(=O)C(=O)NCCCCCC(=O)Nc1ccccc1`, in the series with HCT116 cells (setting [4]), the half-maximal inhibitory concentration (IC50) was greater than 100 µM.
Same read-out and setting: then `CC(=O)C(=O)NCCCCCCC(=O)Nc1ccccc1`, with greater than 100 µM.
Regarding `C/C(=N\O)C(=O)NCCCCC(=O)Nc1ccccc1`, the 50% inhibitory concentration (IC50) in the series with HCT116 cells (setting [4]) was greater than 100 µM.
Still for that read-out and setting: then `C/C(=N\O)C(=O)NCCCCCC(=O)Nc1ccccc1`, with greater than 100 µM.
Consider `C/C(=N\O)C(=O)NCCCCCCC(=O)Nc1ccccc1`, for which, in the series with HCT116 cells (setting [4]), the IC50 is greater than 100 µM.
With `NC(=O)C(=O)NCCCCC(=O)Nc1ccccc1`, in the series on HCT116 cells (setting [4]), the half-inhibitory concentration (IC50) is greater than 100 µM.
Turning to `NC(=O)C(=O)NCCCCCC(=O)Nc1ccccc1`, the IC50 with HCT116 cells (setting [4]) was greater than 100 µM.
Regarding `NC(=O)C(=O)NCCCCCCCC(=O)Nc1ccccc1`, in the series on HCT116 cells (setting [4]), the IC50 was greater than 100 µM.
On the same count and under the same terms, then `OC(c1c(F)c(F)c(-n2cc(-c3ccccc3)nn2)c(F)c1F)C(F)(F)F` (stereo not shown), with greater than 100 µM; and `OC(O)(c1c(F)c(F)c(-n2cc(-c3ccccc3)nn2)c(F)c1F)C(F)(F)F`, with greater than 100 µM; and `O=C(CCCCCNC(=O)c1ccc[nH]1)Nc1ccccc1`, with greater than 100 µM.
For the molecule `O=C(CCCCNC(=O)c1cc(=O)c(O)co1)Nc1ccccc1`, the half-maximal inhibitory concentration (IC50) in the series on HCT116 cells (setting [4]) is greater than 100 µM.
For the molecule `O=C(CCCCCNC(=O)c1cc(=O)c(O)co1)Nc1ccccc1`, the IC50 in the series on HCT116 cells (setting [4]) is greater than 100 µM.
For the molecule `O=C(CCCCCCNC(=O)c1cc(=O)c(O)co1)Nc1ccccc1`, in the series with HCT116 cells (setting [4]), the IC50 was greater than 100 µM.
Take `O=C(CCCCCCC(O)C(F)(F)F)Nc1ccccc1` (stereo not shown): the IC50 with HCT116 cells (setting [5]) is greater than 40 µM.
Broadly, the melting point is the temperature of the solid-liquid transition. The molecule `O=C(CCCCCNC(=O)C(O)(O)C(F)(F)F)Nc1ccccc1` [Compound 10b, N-phenyl-6-(3,3,3-trifluoro-2,2-dihydroxypropanamido)hexanamide] displayed a melting point of 103 to 108 °C. The IC50 with HCT116 cells (setting [6]) was determined as 54.4 µM. Also, the half-inhibitory concentration (IC50) in the series with HCT116 cells (setting [4]) is 54.4 µM. For the same molecule, in the series with HCT116 cells (setting [7]), the “HCT116 IC50” value is reported as “demonstrated antiproliferative activity”.
`O=C(CCCCCCNC(=O)C(O)(O)C(F)(F)F)Nc1ccccc1` [Compound 10c, N-phenyl-7-(3,3,3-trifluoro-2,2-dihydroxypropanamido)heptanamide]: the melting point was in the range of 123 to 128 °C. Further, the half-inhibitory concentration (IC50) in the series with HCT116 cells (setting [6]) was 9.14 µM.
In turn, `COc1cccc(NC(=O)CCCCCCNC(=O)C(O)(O)C(F)(F)F)c1` [Compound 59, N-(3-methoxyphenyl)-7-(3,3,3-trifluoro-2,2-dihydroxypropanamido)heptanamide] came in with a melting point of 120 to 125 °C. Moreover, the IC50 with HCT116 cells (setting [5]) amounted to 6.11 µM.
Molecule `O=C(CCCCCCNC(=O)C(O)(O)C(F)(F)F)Nc1nccs1` [Compound 60, N-(thiazol-2-yl)-7-(3,3,3-trifluoro-2,2-dihydroxypropanamido)heptanamide] returned a melting point of 137 to 142 °C. The “time over which parent M+1 peak did not disappear” value in series [1] (NADPH, 37° C., LC-ESI-MS, aliquots at 1h, 2 hrs) is reported as “over 2 hours”. Besides, in series [1] (result in words), the “metabolic reduction to the alcohol” value is given as “no reduction to the alcohol”.
For orientation: TGI means the concentration at which net growth stops. High values mean lower sensitivity of the cells, low ones greater sensitivity of the cells. Consider `O=C(CCCCCCNC(=O)C(O)(O)C(F)(F)F)Nc1ccc(Cl)cc1` [Compound 64, N-(4-chlorophenyl)-7-(3,3,3-trifluoro-2,2-dihydroxypropanamido)heptanamide], for which the “TGI” value with sixty cell lines [2] was determined as 26.92 µM.
`O=C(CCCCCCNC(=O)C(O)(O)C(F)(F)F)Nc1ccc(Br)cc1` [Compound 65, N-(4-bromophenyl)-7-(3,3,3-trifluoro-2,2-dihydroxypropanamido)heptanamide]: in the series with sixty cell lines [2], the “TGI” value amounted to 20.89 µM.
The molecule `COc1ccccc1NC(=O)CCCCCCNC(=O)C(O)(O)C(F)(F)F` [Compound 66, N-(2-methoxyphenyl)-7-(3,3,3-trifluoro-2,2-dihydroxypropanamido)heptanamide] gave a melting point of 105 to 110 °C. In addition, the IC50 in the series on HCT116 cells (setting [5]) is 10.1 µM.
For `O=C(CCCCCCNC(=O)C(O)(O)C(F)(F)F)Nc1nc(-c2ccccc2)c(-c2ccccc2)s1` [Compound 68, N-(4,5-diphenylthiazol-2-yl)-7-(3,3,3-trifluoro-2,2-dihydroxypropanamido)heptanamide] the same measures were 143 to 148 °C and 29.9 µM.
For the molecule `O=C(CCCCCCNC(=O)C(O)(O)C(F)(F)F)Nc1ccc(-c2ccccc2)cc1` [Compound 69, N-([1,1′-biphenyl]-4-yl)-7-(3,3,3-trifluoro-2,2-dihydroxypropanamido)heptanamide], in the series on sixty cell lines [2], the concentration for total growth inhibition (TGI) turned out to be 15.14 µM.
The molecule `O=C(CCCCCCNC(=O)C(O)(O)C(F)(F)F)Nc1ccccc1Br` [Compound 75, N-(2-bromophenyl)-7-(3,3,3-trifluoro-2,2-dihydroxypropanamido)heptanamide] showed a melting point of 108 to 113 °C. For the same molecule, in the series on HCT116 cells (setting [5]), the 50% inhibitory concentration (IC50) turned out to be 14.5 µM.
Turning to `O=C(CCCCCCNC(=O)C(O)(O)C(F)(F)F)Nc1ncc(-c2ccc(Br)cc2)s1` [Compound 85, N-(5-(4-bromophenyl)thiazol-2-yl)-7-(3,3,3-trifluoro-2,2-dihydroxypropanamido)heptanamide], in the series with PARP1, the “PARP1 cleavage (cleaved PARP1)” value was “Dose-dependent elevation of cleaved PARP1 was detectable”. Also, in the series on sixty cell lines [3], the “cytostatic / cytotoxic activity in NCI 60 assays” value was “cytotoxic effects”. In addition, the “TGI” value with sixty cell lines [2] was 11.4 µM.
In turn, `O=C(CCCCCCNC(=O)C(O)(O)C(F)(F)F)Nc1ncc(-c2ccc(O)cc2)s1` [Compound 86, N-(5-(4-hydroxyphenyl)thiazol-2-yl)-7-(3,3,3-trifluoro-2,2-dihydroxypropanamido) heptanamide] returned a melting point of 145 to 150 °C.
`CCOc1ccc(-c2cnc(NC(=O)CCCCCCNC(=O)C(O)(O)C(F)(F)F)s2)cc1` [Compound 87, N-(5-(4-ethoxyphenyl)thiazol-2-yl)-7-(3,3,3-trifluoro-2,2-dihydroxypropanamido)heptanamide] yielded a melting point of 138 to 143 °C. Further, in the series on HCT116 cells (setting [5]), the IC50 came out at 4.05 µM.
Take `O=C(CCCCCCCNC(=O)c1cc(=O)c(O)co1)Nc1ccccc1` [Compound 89]: the “HCT116 IC50” value in the series with HCT116 cells (setting [7]) is “inactive”.
With `O=C(CCCCCCNC(=O)C(O)C(F)(F)F)Nc1nccs1` (stereo not shown) [Compound 92], the half-inhibitory concentration (IC50) result in the series with HCT116 cells (cap group SAR, HCT116 cell line, maximum concentration of 40 μM) was “inactive”.
Turning to `O=C(CCCCCCCNC(=O)c1cc(=O)c(O)co1)Nc1ccccc1` [drawing 33], the 50% inhibitory concentration (IC50) with HCT116 cells (setting [4]) is greater than 100 µM.
Consider `O=C(CCCCCCNC(=O)C(O)C(F)(F)F)Nc1nccs1` (stereo not shown) [drawing 78], for which the IC50 in the series on HCT116 cells (setting [5]) was greater than 40 µM.
